Assay results reported in ChEMBL document CHEMBL2331532, “(+)-Laburnamine, a natural selective ligand and partial agonist for the α4β2 nicotinic receptor subtype” (J Nat Prod, 2013).
Active and inactive are the calls of the source. The calls are words filed in the database; no cut-off is given here.

Assays:
[1] = target: T1, Neuronal acetylcholine receptor; alpha4/beta2 (Rattus norvegicus, UniProt P09483+P12390); test: Displacement of [3H]epibatidine from alpha4beta2 nAChR in rat cortex
[2] = target: Neuronal acetylcholine receptor subunit alpha-7 (Rattus norvegicus, UniProt Q05941); test: Displacement of [125I]alpha-bungarotoxin from alpha7 nAChR from rat hippocampus; format: tissue-based
Sequence of Neuronal acetylcholine receptor subunit alpha-7 (Rattus norvegicus, UniProt Q05941) (Q05941 whole entry): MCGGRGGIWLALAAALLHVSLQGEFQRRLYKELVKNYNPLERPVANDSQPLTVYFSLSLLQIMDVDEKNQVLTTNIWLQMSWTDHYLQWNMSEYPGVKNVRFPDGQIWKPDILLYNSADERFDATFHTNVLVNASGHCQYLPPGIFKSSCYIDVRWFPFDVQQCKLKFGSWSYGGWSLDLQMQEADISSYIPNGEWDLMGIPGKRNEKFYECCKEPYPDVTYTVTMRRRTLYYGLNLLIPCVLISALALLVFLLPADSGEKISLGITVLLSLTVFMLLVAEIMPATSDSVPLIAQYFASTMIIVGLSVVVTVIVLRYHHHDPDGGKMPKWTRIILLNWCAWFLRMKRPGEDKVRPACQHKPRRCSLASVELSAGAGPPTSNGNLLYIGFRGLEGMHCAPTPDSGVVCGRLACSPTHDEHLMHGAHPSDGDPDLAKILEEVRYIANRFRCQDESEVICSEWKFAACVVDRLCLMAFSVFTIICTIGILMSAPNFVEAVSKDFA

[3] = target: T2, Neuronal acetylcholine receptor; alpha4/beta2 (Rattus norvegicus) (UniProt P09483+P12390); test: Displacement of [3H]epibatidine from alpha4beta2 nAChR in rat cortex up to 100 uM
[4] = species: Rattus norvegicus; test: Selectivity ratio of Ki for alpha7 nAChR in rat hippocampus to Ki for alpha4beta2 nAChR in rat cortex; format: tissue-based
[5] = Selectivity ratio of Ki for human alpha3beta4 nAChR to Ki for alpha4beta2 nAChR in rat cortex
[6] = target: T3, Acetylcholine receptor; alpha1/beta1/delta/gamma (Homo sapiens, UniProt P02708+P07510+P11230+Q07001); test: Displacement of [125I]alpha-bungarotoxin from human alpha2betagammadelta nAChR at 10 uM; format: protein-complex assay
T3 sequence (P02708 whole entry): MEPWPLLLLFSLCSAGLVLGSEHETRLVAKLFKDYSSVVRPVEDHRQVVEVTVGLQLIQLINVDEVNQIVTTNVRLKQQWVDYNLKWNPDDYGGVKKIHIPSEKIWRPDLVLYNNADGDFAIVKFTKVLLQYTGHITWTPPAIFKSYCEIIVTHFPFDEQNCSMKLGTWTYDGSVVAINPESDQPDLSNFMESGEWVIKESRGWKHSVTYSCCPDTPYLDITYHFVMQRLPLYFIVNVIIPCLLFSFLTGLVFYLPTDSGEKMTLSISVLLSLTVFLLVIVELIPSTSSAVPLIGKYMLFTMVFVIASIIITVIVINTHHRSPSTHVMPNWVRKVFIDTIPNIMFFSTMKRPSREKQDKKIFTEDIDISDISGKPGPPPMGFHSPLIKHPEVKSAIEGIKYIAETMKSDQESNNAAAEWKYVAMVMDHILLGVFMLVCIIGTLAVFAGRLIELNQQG
T3 sequence (P07510 whole entry): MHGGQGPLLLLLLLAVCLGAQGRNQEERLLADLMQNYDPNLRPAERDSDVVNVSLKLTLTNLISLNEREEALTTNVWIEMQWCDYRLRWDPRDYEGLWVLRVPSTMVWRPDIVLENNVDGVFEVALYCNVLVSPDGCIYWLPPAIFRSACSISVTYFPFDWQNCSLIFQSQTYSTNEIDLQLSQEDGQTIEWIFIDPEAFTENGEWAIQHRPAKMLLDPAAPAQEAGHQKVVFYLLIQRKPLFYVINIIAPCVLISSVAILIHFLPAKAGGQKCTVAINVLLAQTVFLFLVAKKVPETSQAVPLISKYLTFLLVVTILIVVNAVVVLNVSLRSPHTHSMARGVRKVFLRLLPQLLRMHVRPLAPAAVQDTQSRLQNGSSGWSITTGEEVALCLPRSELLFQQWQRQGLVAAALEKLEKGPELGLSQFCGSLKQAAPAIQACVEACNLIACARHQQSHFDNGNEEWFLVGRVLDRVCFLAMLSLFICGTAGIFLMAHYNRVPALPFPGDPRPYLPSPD
T3 sequence (P11230 whole entry): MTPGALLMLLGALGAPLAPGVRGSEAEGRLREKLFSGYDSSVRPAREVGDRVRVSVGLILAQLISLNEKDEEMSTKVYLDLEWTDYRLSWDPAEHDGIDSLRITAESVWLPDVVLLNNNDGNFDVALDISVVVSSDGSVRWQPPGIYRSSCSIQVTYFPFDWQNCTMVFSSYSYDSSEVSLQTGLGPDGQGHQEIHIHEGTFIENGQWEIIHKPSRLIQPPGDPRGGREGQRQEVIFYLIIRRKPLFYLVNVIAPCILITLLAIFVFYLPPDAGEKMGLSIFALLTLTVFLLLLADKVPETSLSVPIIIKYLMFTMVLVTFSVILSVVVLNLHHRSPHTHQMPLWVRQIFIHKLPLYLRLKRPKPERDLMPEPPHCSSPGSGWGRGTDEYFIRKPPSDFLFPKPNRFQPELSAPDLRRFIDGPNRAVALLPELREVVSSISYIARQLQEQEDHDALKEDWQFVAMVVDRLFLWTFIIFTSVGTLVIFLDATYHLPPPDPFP
T3 sequence (Q07001 whole entry): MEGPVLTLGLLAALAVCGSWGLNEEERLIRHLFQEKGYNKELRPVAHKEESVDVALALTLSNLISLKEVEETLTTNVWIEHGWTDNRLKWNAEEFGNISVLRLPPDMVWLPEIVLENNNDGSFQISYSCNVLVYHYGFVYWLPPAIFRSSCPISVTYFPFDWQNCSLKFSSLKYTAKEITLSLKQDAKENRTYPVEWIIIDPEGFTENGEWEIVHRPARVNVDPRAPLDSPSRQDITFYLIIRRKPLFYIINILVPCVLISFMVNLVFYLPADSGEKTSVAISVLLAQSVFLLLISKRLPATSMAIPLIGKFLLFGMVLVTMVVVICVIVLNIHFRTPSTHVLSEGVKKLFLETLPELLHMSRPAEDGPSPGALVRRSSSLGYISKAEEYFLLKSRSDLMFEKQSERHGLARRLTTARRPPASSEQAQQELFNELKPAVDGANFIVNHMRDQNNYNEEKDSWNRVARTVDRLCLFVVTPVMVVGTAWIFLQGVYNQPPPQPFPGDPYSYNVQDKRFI

[7] = target: T2, Neuronal acetylcholine receptor; alpha4/beta2 (Rattus norvegicus); test: (§1) Antagonist activity at alpha4beta2 nAChR in rat brain striatal slices assessed as inhibition of nicotine-induced release of [3H]dopamine release; format: tissue-based; conditions: concentration not given here
[8] = target: T1, Neuronal acetylcholine receptor; alpha4/beta2; test: as §1; format: tissue-based
[9] = target: T2, Neuronal acetylcholine receptor; alpha4/beta2 (Rattus norvegicus); test: Agonist activity at alpha4beta2 nAChR in rat brain striatal slices assessed as release of [3H]dopamine release relative to nicotine; format: tissue-based
[10] = target: T1, Neuronal acetylcholine receptor; alpha4/beta2; test: Agonist activity at alpha4beta2 nAChR in rat brain striatal slices assessed as release of [3H]dopamine release; format: tissue-based
[11] = target: T3, Acetylcholine receptor; alpha1/beta1/delta/gamma; test: Displacement of [125I]alpha-bungarotoxin from human alpha2betagammadelta nAChR; format: protein-complex assay
[12] = target: Neuronal acetylcholine receptor; alpha3/beta4 (Homo sapiens, UniProt P30926+P32297); test: Displacement of [3H]epibatidine from human alpha3beta4 nAChR expressed in HEK cells; format: cell-based, HEK293
Sequence of Neuronal acetylcholine receptor; alpha3/beta4 (P30926 whole entry): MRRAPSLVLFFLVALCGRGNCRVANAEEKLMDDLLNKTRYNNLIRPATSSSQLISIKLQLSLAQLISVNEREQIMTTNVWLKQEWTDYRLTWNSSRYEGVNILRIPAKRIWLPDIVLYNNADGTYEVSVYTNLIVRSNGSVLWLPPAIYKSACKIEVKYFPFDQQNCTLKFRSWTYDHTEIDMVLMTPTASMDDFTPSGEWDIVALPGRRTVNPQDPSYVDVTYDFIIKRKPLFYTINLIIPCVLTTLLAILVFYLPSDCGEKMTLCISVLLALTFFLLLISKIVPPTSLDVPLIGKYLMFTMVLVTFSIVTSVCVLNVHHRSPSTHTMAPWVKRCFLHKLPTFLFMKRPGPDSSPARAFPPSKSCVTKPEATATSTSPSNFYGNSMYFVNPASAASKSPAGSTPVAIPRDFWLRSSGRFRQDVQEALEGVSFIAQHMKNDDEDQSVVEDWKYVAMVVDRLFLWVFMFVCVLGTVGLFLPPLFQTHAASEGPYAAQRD
Sequence of Neuronal acetylcholine receptor; alpha3/beta4 (P32297 whole entry): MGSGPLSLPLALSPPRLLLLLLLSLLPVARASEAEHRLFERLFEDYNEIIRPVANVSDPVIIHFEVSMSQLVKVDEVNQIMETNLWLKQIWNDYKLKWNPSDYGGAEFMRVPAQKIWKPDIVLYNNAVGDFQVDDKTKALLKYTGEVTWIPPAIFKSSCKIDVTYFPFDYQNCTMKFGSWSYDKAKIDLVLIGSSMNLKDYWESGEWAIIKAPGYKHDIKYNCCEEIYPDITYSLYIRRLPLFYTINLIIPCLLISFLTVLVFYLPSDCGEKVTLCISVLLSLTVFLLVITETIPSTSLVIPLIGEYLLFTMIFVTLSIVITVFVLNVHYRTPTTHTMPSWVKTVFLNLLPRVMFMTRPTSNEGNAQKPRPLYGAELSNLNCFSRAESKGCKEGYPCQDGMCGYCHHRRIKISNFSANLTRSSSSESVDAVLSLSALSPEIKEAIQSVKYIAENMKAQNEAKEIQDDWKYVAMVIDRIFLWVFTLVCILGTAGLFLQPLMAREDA

[13] = target: Neuronal acetylcholine receptor subunit alpha-7 (Homo sapiens, UniProt P36544); test: Displacement of [3H]methyllycaconitine from alpha7 nAChR (unknown origin)
[14] = target: Neuronal acetylcholine receptor; alpha4/beta2 (Homo sapiens, UniProt P17787+P43681); test: Displacement of [3H]epibatidine from alpha4beta2 nAChR (unknown origin); format: protein-complex assay

T1 sequence (P09483 whole entry): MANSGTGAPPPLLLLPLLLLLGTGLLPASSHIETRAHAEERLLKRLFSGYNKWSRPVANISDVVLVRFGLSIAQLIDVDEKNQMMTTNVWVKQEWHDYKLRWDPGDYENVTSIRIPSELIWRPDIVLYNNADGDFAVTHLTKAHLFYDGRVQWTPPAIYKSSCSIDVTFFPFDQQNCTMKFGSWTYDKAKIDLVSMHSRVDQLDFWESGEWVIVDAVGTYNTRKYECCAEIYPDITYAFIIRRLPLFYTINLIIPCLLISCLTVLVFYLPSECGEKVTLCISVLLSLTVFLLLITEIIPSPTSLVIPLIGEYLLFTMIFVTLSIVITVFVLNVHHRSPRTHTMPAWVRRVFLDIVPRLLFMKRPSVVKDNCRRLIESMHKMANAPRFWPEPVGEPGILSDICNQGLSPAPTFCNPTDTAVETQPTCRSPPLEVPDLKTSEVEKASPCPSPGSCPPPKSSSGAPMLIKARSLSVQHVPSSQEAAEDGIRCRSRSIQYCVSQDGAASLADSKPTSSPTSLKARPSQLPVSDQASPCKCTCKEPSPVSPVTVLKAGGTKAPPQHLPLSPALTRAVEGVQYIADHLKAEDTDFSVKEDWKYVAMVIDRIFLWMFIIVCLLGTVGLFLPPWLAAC
T1 sequence (P12390 whole entry): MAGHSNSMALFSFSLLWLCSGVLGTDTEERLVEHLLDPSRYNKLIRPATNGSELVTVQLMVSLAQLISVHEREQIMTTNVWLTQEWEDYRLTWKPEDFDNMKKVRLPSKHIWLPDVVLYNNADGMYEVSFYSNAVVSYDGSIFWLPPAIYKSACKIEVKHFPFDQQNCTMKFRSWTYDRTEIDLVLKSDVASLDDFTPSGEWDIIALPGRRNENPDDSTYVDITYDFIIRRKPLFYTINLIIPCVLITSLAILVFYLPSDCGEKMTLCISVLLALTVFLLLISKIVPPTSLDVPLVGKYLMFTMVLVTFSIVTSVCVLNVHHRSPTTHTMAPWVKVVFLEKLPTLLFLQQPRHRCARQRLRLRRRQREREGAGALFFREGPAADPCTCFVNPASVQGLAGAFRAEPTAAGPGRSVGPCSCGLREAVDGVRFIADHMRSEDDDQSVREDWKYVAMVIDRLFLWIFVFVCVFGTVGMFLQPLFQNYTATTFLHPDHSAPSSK

Structure (SMILES): CC(C)C(=O)N[C@H]1CCCN2CCCC[C@H]12 (racemic)
- Ki [1]: 6.05 µM

Structure (SMILES): CC(C)C(=O)N[C@H]1CCN2CCCC[C@@H]12 (racemic)
- Ki [2]: 26 µM
- Ki [1]: 283 µM

Structure (SMILES): CC(=O)N[C@H]1CCCN2CCCC[C@@H]12
- Activity [3]: inactive

Structure (SMILES): CCC(C)C(=O)N[C@H]1CCN2CCC[C@H]12 (stereo not given in full)
- Ratio Ki [4]: 136
- Ratio Ki [5]: 126
- Activity [6]: 5%
- inhibition [7]: 46%
- IC50 [8]: 1.6 µM
- Efficacy [9]: 43%
- EC50 [10]: 5.8 µM
- Ki [11]: > 10 µM
- Ki [2]: 40 µM
- Ki [12]: 37 µM
- Ki [1]: 0.29 µM

Structure (SMILES): CC(C)C(=O)N[C@H]1CCCN2CCCC[C@@H]12 (racemic)
- Ki [1]: 6.81 µM

Structure (SMILES): CCC(=O)N[C@H]1CCCN2CCCC[C@@H]12 (racemic)
- Ki [1]: 4.44 µM

Structure (SMILES): CCC(=O)N[C@H]1CCCN2CCCC[C@H]12 (racemic)
- Ki [1]: 6.15 µM

Structure (SMILES): CC(=O)C1=CC[C@@H]2CC[C@H]1N2
- Ki [13]: 100 µM
- Ki [14]: 0.094 µM

Structure (SMILES): CC(C)C(=O)N[C@@H]1CCN2CCCC[C@@H]12 (racemic)
- Ki [2]: 29 µM
- Ki [1]: 100 µM

Structure (SMILES): O=c1cccc2n1C[C@@H]1CNC[C@H]2C1 [CYTISINICLINE]
- Ki [2]: 0.23 µM
- Ki [12]: 0.28 µM
- Ki [1]: 0.0021 µM
